{
  "source": "patent US20220339260A1",
  "about": "“METHOD FOR PRODUCING INSULIN-PRODUCING CELL USING DIHYDROINDOLIZINONE DERIVATIVES” (TOKYO INSTITUTE OF TECHNOLOGY, priority 2019, published 2022)",
  "key": {"SK7 mouse ES cells": {"test_system": "SK7 mouse ES cells", "assay": "Screening for β cell differentiation enhancer using SK7 mouse ES cells (Pdx1-GFP)", "format": "cell-based", "description": "The SK7 mouse ES cells were differentiated into β cells basically according to the previous report (Nakashima et al., 2015). Briefly, the cells were seeded at 5,000 cells per well in CellBIND 384-well (CORNING, 3770) cell culture plate or at 20,000 cells per well in a 96-well plate (Sigma) coated with 0.2% gelatin. Then, the cells were cultured in medium 1 from days 1 to 5. Medium 1 consisted of DMEM (high glucose) (Life Technologies, 11965092) supplemented with 0.1 mM NEAA (Gibco, 11140-50), 2 mM L-glutamine (Nacalai, 16948-04), 100 U/mL penicillin-streptomycin (Nacalai, 26252-94), 0.01 mM β-mercaptoethanol (Sigma), 1% insulin-transferrin-selenium supplement (ITS: Life Technologies, 41400045), 0.25% Albumax (Thermo Fisher, 11020021), and 10 ng/mL recombinant human activin-A (R&D Systems, 338-AC). Subsequently, the cells were cultured for 1 day in medium 2 which consisted of medium 1 supplemented with 10 μM retinoic acid (Stemgent, 04-0021). On day 6, the medium was replaced with medium 3, and the culture was continued until day 12 in order to induce differentiation into β cells. Medium 3 consisted of DMEM (low glucose) (Life Technologies, 11885084) supplemented with 0.1 mM NEAA, 2 mM L-glutamine, 100 U/mL penicillin-streptomycin, 0.1 mM β-mercaptoethanol, 1% ITS, 0.25% Albumax, and 3 mM nicotinamide (Sigma-Aldrich, N0636-500G). A test compound was added on day 8, and the cells were fixed in 4% paraformaldehyde for analysis using a high-content imager.\nA chemical library consisting of about 55,000 compounds was screened for a substance that induced β cell differentiation. […] Fluorescence images were quantified using Operetta high-content imaging system and Harmony image analysis software (PerkinElmer, Germany). The nuclei were identified by DAPI staining, and the positivity of antibody staining was determined from the fluorescence intensity of a cytoplasmic region surrounding the nucleus. The number of cells positive to both insulin and GFP was counted and normalized with the total number of DAPI-positive cells or a positive area. A median of quadruple data was calculated, and screening hits were defined as states in which the number of insulin- and GFP-positive cells was increased as compared with a DMSO control. […] The activity of the selected candidate compounds was further analyzed with Toe human iPS cell assay system in order to select a hit compound having effectiveness for both differentiation into mouse β cells and differentiation into human β cells. A compound was added as described above, and its effectiveness was evaluated from a mRNA expression level by q-PCR in triplet experiments. […]"}, "Toe human iPS cells": {"test_system": "Toe human iPS cells", "assay": "Differentiation of Toe human iPS cells into iPS-β cells, monolayer culture, protocol #1", "format": "cell-based", "conditions": "treatment from later stage of stage 3 to initial stage of stage 5", "description": "The Toe human iPS cells were seeded in CellBIND 6-well (CORNING, CLS3335) cell culture plate coated with synthemax II, and differentiated into primitive gut tube cells by the previously described method (Shahjalal et al., 2014). The cells were dissociated with TrypLE Select (Thermo Fisher, 12563011) and cryopreserved in BanBanker (Nippon genetics) at a density of 1.0 to 2.0×10^7 cells/mL until use. One day before compound addition, the cells were thawed in a medium for stage 3 (DMEM (high glucose), 0.25 μM SANT1 (Wako, 197-16351), 0.1 μM LDN193189 (Stemgent, 04-0074), 10 μM SB431542, 2 μM retinoic acid, 1% B27-free serum supplement (Life Technologies, 17504044), and seeded at 150,000 cells per well in CellBIND 96-well (Corning, 3340) cell culture plated coated with synthemax II. The cells were cultured for 1 day in a medium for stage 3 containing a test compound or a negative control (0.01% DMSO). The cells were further cultured for 2 days and 1 day in media for stages 4 and 5, respectively, containing the test compound or the negative control. On the next day, the cells were fixed in 4% paraformaldehyde for analysis using a high-content imager."}},
  "data": [
    {"smiles": "O=C1CCC(C(=O)Nc2ncc(-c3ccccc3)s2)n2cccc21", "note": "(stereo not shown) [Synthesis Example 1, 8-Oxo-N-(5-phenylthiazol-2-yl)-6,7-dihydro-5H-indolizine-5-carboxamide]", "values": [
      {"measurement": "number of Pdx1-GFP+Ins+ double-positive cells", "setting": "SK7 mouse ES cells; K-1 in combination with γ-secretase inhibitor LY411575", "result": "further enhanced increase"},
      {"measurement": "ratio of Pdx1-GFP+insulin+ double-positive cells", "setting": "SK7 mouse ES cells; dose-dependent, compound added on day 8", "result": "increased"},
      {"measurement": "expression of insulin 1", "setting": "SK7 mouse ES cells; dose-dependent, mRNA normalized with Hprt1", "result": "increased"},
      {"measurement": "differentiation into iPS-β cells (INS+ cells)", "setting": "Toe human iPS cells", "result": "enhanced differentiation into iPS-β cells"}
    ]}
  ]
}
